Here are results for one compound from ChEMBL document CHEMBL3785022, “Pharmacokinetics of cyclophosphamide and alkylating activity in man after intravenous and oral administration” (Br J Clin Pharmacol, 1979).

Data set [1] can be described thus: Extraction ratio in lymphoma patient (7 patients). The conditions noted are these: human, in vivo.
The nature of data set [2]: Half life in po dosed lymphoma patient (7 patients) by one compartment open model. Conditions: human, in vivo.
Data set [3] can be described thus: Renal clearance in lymphoma patient (7 patients). Conditions: human, in vivo.
Data set [4] in a line: Drug excretion in po dosed lymphoma patient (7 patients) assessed as unchanged parent compound in urine. Conditions: human.
The nature of data set [5]: clinical. Conditions: human, in vivo, iv, 11.3 mg/kg.
Description: Elimination rate constant in lymphoma patient at 11.3 mg/kg, iv by one compartment open model
A short description of data set [6]: Elimination rate constant in po dosed lymphoma patient (7 patients) by one compartment open model. The conditions noted are these: human, in vivo.
Data set [7] in a line: clinical. The conditions noted are these: human, plasma, iv, 11.3 mg/kg.
The nature of data set [8]: clinical. The conditions noted are these: human, in vivo, iv, 11.3 mg/kg. This is another data set of the same source.
Description: Clearance in lymphoma patient at 11.3 mg/kg, iv by one compartment open model
Data set [9] can be described thus: clinical. The conditions noted are these: human, in vivo, iv, 11.3 mg/kg. The source holds these as a separate data set.
Description: Elimination half life in lymphoma patient at 11.3 mg/kg, iv by one compartment open model
A short description of data set [10]: First order rate constant for slow elimination phase in iv dosed lymphoma patient (6 patients) by two-compartmental open model. Conditions: human, in vivo.
The nature of data set [11]: Apparent volume of distribution during terminal log-linear elimination phase in iv dosed lymphoma patient (6 patients) by two-compartmental open model. Conditions: human, in vivo.
The nature of data set [12]: Elimination rate constant from central compartment in iv dosed lymphoma patient (6 patients) by two-compartmental open model. Conditions: human, in vivo.
Data set [13] can be described thus: Clearance in po dosed lymphoma patient (7 patients) by one compartment open model. Conditions: human, in vivo.
A short description of data set [14]: clinical. Conditions: human, in vivo, iv, 11.3 mg/kg. This is another data set of the same source.
Description: Volume of distribution in lymphoma patient at 11.3 mg/kg, iv by one compartment open model
Data set [15] is described as follows: Apparent volume of distribution of central compartment in iv dosed lymphoma patient (6 patients) by two-compartmental open model. The conditions noted are these: human, in vivo.

As a reminder, the half-life is the time needed for the level to fall by half in the phase considered. High values mean slow loss, low ones fast loss. In general, clearance refers to the volume of plasma or blood freed of the substance per unit of time. A higher clearance goes with a high capacity for elimination. By CL/F is commonly meant clearance divided by bioavailability, as obtained after extravascular dosing.

For `O=P1(N(CCCl)CCCl)NCCCO1` (stereo not given) [CYCLOPHOSPHAMIDE ANHYDROUS], the hepatic extraction ratio in [1] came to 0.25. Further, the half-life in [2] was 3.93 h; in the data set “clinical [9]” it was 6.42 h. Besides, in [3], the CL renal is 0.08 mL/min/kg. In [4], the dose excreted was found to be 1.8%. In addition, the k el in the data set “clinical [5]” is 3e-05 s⁻¹; in [6], 6.03e-05 s⁻¹; in data set [10] it was 2.53e-05 s⁻¹; in data set [12], 5.56e-05 s⁻¹. In “clinical [7]”, this compound had a C0 of 12500 ng/mL. The compound also showed a clearance in “clinical [8]” of 1.62 mL/min/kg. For the same compound, the results for the Vd (in [11]; in “clinical [14]”; in [15]) were 0.71 L/kg, 0.9 L/kg and 0.38 L/kg, respectively. In [13], the CL/F is 1.55 mL/min/kg.
